Results taken from US20060217305A1, “Induction of tumor cell senescence by retinoid receptor agonists and antagonists” (Ordway Research Institute, Inc., priority 2005, published 2006).

Test system: retinoid-inducible genes EPLIN, UBD, IGFBP3, TGFB1 and TRIM31 in MCF-7 cells (subline MCF-7 3′SS6)
Assay: real-time RT-PCR (QPCR) of retinoid-inducible gene expression, 2 days treatment
Type: cell-based, human
Conditions: for Fold induction EPLIN / Fold induction IGFBP3 / Fold induction TGFBI / Fold induction TRIM31 / Fold induction UBD: 2 days, MCF-7
From the text: The following compounds were obtained from Ligand Pharmaceuticals (San Diego, Calif.). LGD1550 is a pan-RAR agonist. LGD1268 is a pan-RXR agonist. LG100815 is a pan-RAR antagonist. LG101208 is a pan-RXR antagonist. The LG100815 compound is a specific RAR antagonist that binds to RAR, but fails to activate its Retinoic Acid Responsive Element (RARE)-dependent transcription transactivation function (see Lee et al, Mol. Cell Biol. 19: 1973-1980 (1999)). Also used was all-trans retinoic acid (RA), the most commonly used RAR agonist. To determine how these compounds affect the expression of retinoid-inducible growth inhibitory genes EPLIN, UBD, IGFBP3 and TGFB1, as well as TRIM31 gene that contains a putative RARE element in its promoter, MCF-7 cells (subline MCF-7 3′SS6) were treated with individual compounds or their combinations for 2 days, and RNA was extracted by standard procedures. In the initial assays, gene expression was analyzed by semi-quantitative reverse transcription-PCR (RT-PCR), as described in Dokmanovic et al., Cancer Biology & Therapy 1:24-27 (2002). In subsequent assays, the initial results were confirmed, expanded and quantitated by real-time RT-PCR (QPCR), using Applied BioSystems 7900HT real-time PCR instrument. β-actin was used as a normalization standard.
cDNA was prepared by reverse transcription with random primer using 4 μg total RNA. 5 μl SYBR Green PCR Master Mix (Applied Biosystems) was mixed with […] cDNA and 0.8 pmol of gene-specific primers and brought up to 10 μl with ultra pure H2O in 384-well optical plates. For amplification, reaction mixtures were heated for 2 min at 50° C. and 10 min at 95° C., followed by 40 cycles of two-step PCR consisting of 15 sec at 95° C. and 1 min at 60° C., to construct dissociation curves and verify that single PCR products were obtained. PCR products were also analyzed by gel electrophoresis to confirm that a single product of the expected size was amplified. […] The comparative CT method for relative quantitation of gene expression described by Applied Biosystems was used to determine expression levels for target genes. Experiments were carried out in triplicate for each data point. Sequence Detection Systems software version 2.1 (Applied Biosystems) and Microsoft Excel were used for data analysis.

Structure (SMILES): CC(/C=C/C=C(\C)c1cc(C(C)(C)C)cc(C(C)(C)C)c1)=C\C(=O)O [LGD1550]
- ratio of the fold-induction of TGFB1 relative to TRIM31 (100 nM): 0.12
- Fold induction EPLIN (100 nM): 4.2 ± 0.8 fold
- Fold induction IGFBP3 (100 nM): 4.2 ± 2.0 fold
- Fold induction TGFBI (100 nM): 5.1 ± 0.6 fold
- Fold induction TRIM31 (100 nM): 42.7 ± 1.3 fold
- Fold induction UBD (100 nM): 9.5 ± 0.2 fold
- ratio of the fold-induction of TGFB1 relative to TRIM31 (1 μM): 0.12
- Fold induction EPLIN (1 μM): 3.2 ± 0.3 fold
- Fold induction IGFBP3 (1 μM): 3.7 ± 0.7 fold
- Fold induction TGFBI (1 μM): 3.5 ± 0.4 fold
- Fold induction TRIM31 (1 μM): 30.3 ± 0.7 fold
- Fold induction UBD (1 μM): 7.7 ± 1.1 fold
- ratio of the fold-induction of TGFB1 relative to TRIM31 (10 μM): 0.12
- Fold induction EPLIN (10 μM): 4.9 ± 2.5 fold
- Fold induction IGFBP3 (10 μM): 2.8 ± 1.6 fold
- Fold induction TGFBI (10 μM): 5.6 ± 0.1 fold
- Fold induction TRIM31 (10 μM): 45.0 ± 1.4 fold
- Fold induction UBD (10 μM): 7.3 ± 1.1 fold
- effect on expression of the five genes (IGFBP3, EPLIN, UBD, TGFB1, TRIM31) (summary of Table 2, MCF-7): induced all five genes to approximately the same extent as RA
